Test results as given in patent publication US20180332850A1, “METHOD FOR IMPROVING EARLINESS IN COTTON” (Robert Bosch GmbH, priority 2015, published 2018).

Test system: Cotton (Gossypium hirsutum) of the variety DP 1050 B2BRF
Assay: Field trial: percentage of open bolls in cotton after in-furrow application (earliness)
Type: in vivo
Conditions: application rate 841 g/ha, in furrow by spreading, visual inspection
Description: Cotton (Gossypium hirsutum) of the variety DP 1050 B2BRF was planted in a field trial in Brooks, Ga., United States in May 2013. Temik (comprising the active ingredient Aldicarb ([2-methyl-2-(methylthio) propionaldehyde O-(methylcarbamoyl)oxime]) and Fluopyram in combination with Imidacloprid (Velum® Total, Bayer CropScience) were applied in furrow at the same day. Temik was used for controlling insects in cotton and was provided as a Granule Release formulation with 15% (w/w) active ingredient and was applied at a rate of 841 g of active ingredient/ha by spreading. Fluopyram in combination with Imidacloprid (Velum® Total) was used as a Soluble Concentrate (SC) formulation with a concentration of 440 g/l active ingredient in total, thereof 180 g/l Fluopyram and 260 g/l Imidacloprid and these combinations were applied separately at three different rates of 321.5 g of total active ingredient/ha, 450 g of total active ingredient/ha, and 578.7 g of total active ingredient/ha by spraying. The percentage of open bolls was assessed by visual inspection at three times after application.

With `CNC(=O)ON=CC(C)(C)SC` [Aldicarb, 2-methyl-2-(methylthio) propionaldehyde O-(methylcarbamoyl)oxime] the “percentage of open bolls, 97 Days after Application BBCH 76” value (97 days after application, BBCH 76) was 12.5%, the “percentage of open bolls, 104 Days after Application BBCH 77” value (104 days after application, BBCH 77) was 17.5% and the “percentage of open bolls, 111 Days after Application BBCH 78” value (111 days after application, BBCH 78) was 30.0%.
